Measurements taken from ChEMBL document CHEMBL4184220, “Identification of novel plasminogen activator inhibitor-1 inhibitors with improved oral bioavailability: Structure optimization of N-acylanthranilic acid derivatives” (Bioorg Med Chem Lett, 2018).
Blank lines part the entries; values can stand above or below the compound they belong to.

Assays:
[1] = Cmax in Wistar rat at 5 mg/kg, po administered as single dose measured after 1 to 24 hrs by reverse-phase HPLC method; type: ADME, organism-based; set-up: dose 5 mg/kg, route oral; conditions: in vivo
[2] = Tmax in Wistar rat at 5 mg/kg, po administered as single dose measured after 1 to 24 hrs by reverse-phase HPLC method; type: ADME, organism-based; conditions: in vivo
[3] = Half life in Wistar rat at 5 mg/kg, po administered as single dose measured after 1 to 24 hrs by reverse-phase HPLC method; conditions: in vivo
[4] = molecular target: Plasminogen activator inhibitor 1 (Homo sapiens, UniProt P05121); assay: Inhibition of human PAI-1 assessed as remaining enzyme activity by measuring p-nitroaniline release pre-incubated for 15 mins before 2 nM […] addition for 15 mins using 5 nM enzyme and chromogenic substrate S-2288 by spectrophotometry
Chain of Plasminogen activator inhibitor 1 (P05121 whole entry): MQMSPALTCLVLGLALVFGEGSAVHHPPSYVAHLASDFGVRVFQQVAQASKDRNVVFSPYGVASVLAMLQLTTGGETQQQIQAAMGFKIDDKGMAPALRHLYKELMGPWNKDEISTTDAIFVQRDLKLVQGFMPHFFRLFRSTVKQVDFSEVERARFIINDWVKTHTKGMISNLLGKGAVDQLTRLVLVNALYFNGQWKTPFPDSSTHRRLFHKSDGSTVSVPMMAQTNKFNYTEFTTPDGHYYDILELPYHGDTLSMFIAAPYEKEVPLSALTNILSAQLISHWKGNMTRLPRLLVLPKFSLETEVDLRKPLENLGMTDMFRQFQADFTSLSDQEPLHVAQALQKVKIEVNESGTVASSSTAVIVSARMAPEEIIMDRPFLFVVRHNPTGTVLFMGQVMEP

[5] = Half life in Wistar rat at 5 mg/kg, po administered as triple or quadruple dosing measured after 1 to 24 hrs by reverse-phase HPLC method; type: ADME, organism-based; conditions: in vivo
[6] = Tmax in Wistar rat at 5 mg/kg, po administered as triple or quadruple dosing measured after 1 to 24 hrs by reverse-phase HPLC method; type: ADME, organism-based; conditions: in vivo
[7] = Cmax in Wistar rat at 5 mg/kg, po administered as triple or quadruple dosing measured after 1 to 24 hrs by reverse-phase HPLC method; type: ADME, organism-based; set-up: dose 5 mg/kg, route oral; conditions: in vivo
[8] = Cmax in Wistar rat at 50 mg/kg, po administered as single dose measured after 1 to 24 hrs by reverse-phase HPLC method; type: ADME, organism-based; set-up: dose 50 mg/kg, route oral; conditions: in vivo
[9] = Tmax in Wistar rat at 50 mg/kg, po administered as single dose measured after 1 to 24 hrs by reverse-phase HPLC method; type: ADME, organism-based; conditions: in vivo
[10] = Half life in Wistar rat at 50 mg/kg, po administered as single dose measured after 1 to 24 hrs by reverse-phase HPLC method; conditions: in vivo

SMILES: COc1cccc(-c2ccc(C)c(NC(=O)COCC(=O)Nc3ccc(Cl)cc3C(=O)O)c2)c1
Cmax [1]: 9.4 µM | Tmax [2]: 2 h | half-life [3]: 1.5 h

SMILES: O=C(COCC(=O)Nc1ccc(Cl)cc1C(=O)O)Nc1cccc(-c2cn[nH]c2)c1
Cmax [1]: 1.7 µM | Tmax [2]: 1 h | half-life [3]: 3.1 h

SMILES: O=C(COCC(=O)Nc1ccc(Cl)cc1C(=O)O)Nc1cccc(-c2ccon2)c1
Cmax [1]: 2 µM | Tmax [2]: 2 h | half-life [3]: 1.9 h

SMILES: O=C(Nc1ccc(Cl)cc1C(=O)O)c1ccc(Oc2ccccc2)cc1
IC50 [4]: 5.52 µM | half-life [5]: 13.3 h | Tmax [6]: 6 h | Cmax [7]: 64.2 µM

SMILES: O=C(COCC(=O)Nc1ccc(Cl)cc1C(=O)[O-])Nc1cccc(-c2cccnc2)c1.[Na+]
Cmax [8]: 15.1 µM | Tmax [9]: 2 h

SMILES: CCN(C(=O)COCC(=O)Nc1ccc(Cl)cc1C(=O)O)c1cc(-c2ccc(F)cc2)ccc1C
Cmax [1]: 0.82 µM | Tmax [2]: 1 h | half-life [3]: 0.9 h

SMILES: Cn1cc(-c2cccc(NC(=O)COCC(=O)Nc3ccc(Cl)cc3C(=O)O)c2)cn1
half-life [10]: 9.9 h | Cmax [8]: 20.5 µM | Tmax [9]: 2 h

SMILES: O=C(Nc1ccc(Cl)cc1C(=O)O)c1ccc(-c2ccccc2)cc1
IC50 [4]: 2.98 µM | half-life [5]: 10.4 h | Tmax [6]: 2 h | Cmax [7]: 73.5 µM

SMILES: O=C(COCC(=O)Nc1ccc(Cl)cc1C(=O)[O-])Nc1cccc(-n2cccc2)c1.[Na+]
Cmax [1]: 7.4 µM | Tmax [2]: 2 h | half-life [3]: 2.2 h

SMILES: CC(C)Oc1ccc(C(=O)Nc2ccc(Cl)cc2C(=O)O)cc1
IC50 [4]: > 10 µM | half-life [5]: 5 h | Tmax [6]: 1 h | Cmax [7]: 22.3 µM

SMILES: O=C(COCC(=O)Nc1ccc(Cl)cc1C(=O)[O-])Nc1cccc(-c2ccccn2)c1.[Na+]
half-life [10]: 2.4 h | Cmax [8]: 136 µM | Tmax [9]: 1 h

SMILES: CC(C)(C)c1ccc(C(=O)Nc2ccc(Cl)cc2C(=O)O)cc1
IC50 [4]: 5.2 µM | half-life [5]: 3.4 h | Tmax [6]: 1 h | Cmax [7]: 64.9 µM

SMILES: O=C(Nc1ccc(Cl)cc1C(=O)O)c1cccc(-c2ccoc2)c1
half-life [5]: 2 h | Tmax [6]: 2 h | Cmax [7]: 29.4 µM

SMILES: O=C(Cc1cccc(-c2ccoc2)c1)Nc1ccc(Cl)cc1C(=O)O
half-life [5]: 1.9 h | Tmax [6]: 2 h | Cmax [7]: 43.1 µM

SMILES: O=C(Nc1ccc(Cl)cc1C(=O)O)c1cccc(C2CCCCC2)c1
IC50 [4]: 2.42 µM | half-life [5]: 1.4 h | Tmax [6]: 1 h | Cmax [7]: 3.3 µM

SMILES: O=C(COCC(=O)Nc1ccc(Cl)cc1C(=O)O)Nc1cccc(-c2ccncc2)c1
half-life [10]: > 18 h | Cmax [8]: 18 µM | Tmax [9]: 6 h

SMILES: O=C(COCC(=O)Nc1ccc(Cl)cc1C(=O)O)Nc1ccc(-c2ccoc2)cc1
Cmax [1]: 17.6 µM | Tmax [2]: 2 h | half-life [3]: 4.2 h

SMILES: O=C(COc1cccc(-c2ccoc2)c1)Nc1ccc(Cl)cc1C(=O)O
half-life [5]: 1.9 h | Tmax [6]: 2 h | Cmax [7]: 56.3 µM

SMILES: O=C(Nc1ccc(Cl)cc1C(=O)O)c1ccc(C(=O)c2ccccc2)cc1
IC50 [4]: 4.11 µM | half-life [5]: 0.9 h | Tmax [6]: 1 h | Cmax [7]: 35 µM

SMILES: O=C(Nc1ccc(Cl)cc1C(=O)[O-])c1cccc(-c2cccc3cnccc23)c1.[Na+]
IC50 [4]: 1.84 µM | half-life [5]: 10.5 h | Tmax [6]: 2 h | Cmax [7]: 1.2 µM

SMILES: O=C(COCC(=O)Nc1ccc(Cl)cc1C(=O)O)Nc1cccc(-c2ccno2)c1
Cmax [1]: 14 µM | Tmax [2]: 1 h | half-life [3]: 6 h

SMILES: O=C(COCC(=O)Nc1ccc(Cl)cc1C(=O)O)NCc1cccc(-c2ccoc2)c1
half-life [5]: 2.7 h | Tmax [6]: 2 h | Cmax [7]: 14 µM

SMILES: COc1ccccc1-c1ccc(C)c(NC(=O)COCC(=O)Nc2ccc(Cl)cc2C(=O)O)c1
Cmax [1]: 2.08 µM | Tmax [2]: 2 h | half-life [3]: 2.5 h

SMILES: O=C(COCC(=O)Nc1ccc(Cl)cc1C(=O)O)Nc1cccc(-c2ccco2)c1
Cmax [1]: 11.5 µM | Tmax [2]: 2 h | half-life [3]: 4 h

Other lines, results leading:

IC50 [4]: 1.86 µM | half-life [5]: 2.3 h | Tmax [6]: 2 h | Cmax [7]: 4.4 µM
SMILES: O=C(Nc1ccc(Cl)cc1C(=O)O)c1cccc(C23CC4CC(CC(C4)C2)C3)c1

Cmax [8]: 62.8 µM | Tmax [9]: 1 h
SMILES: O=C(COCC(=O)Nc1ccc(Cl)cc1C(=O)[O-])Nc1cccc(-c2ccc(F)cc2)c1.[Na+]

IC50 [4]: 1.67 µM | half-life [5]: 3.5 h | Tmax [6]: 2 h | Cmax [7]: 1.1 µM
SMILES: O=C(Nc1ccc(Cl)cc1C(=O)[O-])c1cccc(-c2cnc3ccccc3c2)c1.[Na+]

Cmax [1]: 2.2 µM | Tmax [2]: 2 h | half-life [3]: 1 h
SMILES: COc1ccc(-c2ccc(C)c(NC(=O)COCC(=O)Nc3ccc(Cl)cc3C(=O)O)c2)cc1

Cmax [8]: 7.8 µM | Tmax [9]: 6 h
SMILES: O=C(COCC(=O)Nc1ccc(Cl)cc1C(=O)O)Nc1ccc(-c2ccncc2)cc1

IC50 [4]: 2.4 µM | half-life [5]: 0.7 h | Tmax [6]: 1 h | Cmax [7]: 15.2 µM
SMILES: O=C(Nc1ccc(Cl)cc1C(=O)O)c1ccc(C2CCCCC2)cc1

IC50 [4]: 1.17 µM | half-life [5]: 4.3 h | Tmax [6]: 2 h | Cmax [7]: 13.8 µM
SMILES: O=C(Nc1ccc(Cl)cc1C(=O)O)c1ccc(C23CC4CC(CC(C4)C2)C3)cc1

IC50 [4]: 2.31 µM | half-life [5]: 0.7 h | Tmax [6]: 1 h | Cmax [7]: 5.2 µM
SMILES: O=C(Nc1ccc(Cl)cc1C(=O)O)c1cccc(C2=CCCCC2)c1

IC50 [4]: 3.63 µM | half-life [5]: 2.5 h | Tmax [6]: 1 h | Cmax [7]: 22.2 µM
SMILES: O=C(Nc1ccc(Cl)cc1C(=O)[O-])c1cccc(-c2cccc3cccnc23)c1.[Na+]

IC50 [4]: > 40 µM | half-life [5]: 1.6 h | Tmax [6]: 2 h | Cmax [7]: 5.2 µM
SMILES: O=C(Nc1ccc(Cl)cc1C(=O)[O-])c1cccc(-c2ccncc2)c1.[Na+]

Cmax [1]: 17.9 µM | Tmax [2]: 1 h | Cmax [8]: 149 µM | Tmax [9]: 1 h
SMILES: O=C(COCC(=O)Nc1ccc(Cl)cc1C(=O)O)Nc1cccc(-c2ccoc2)c1

Cmax [8]: 41.8 µM | Tmax [9]: 1 h
SMILES: O=C(COCC(=O)Nc1ccccc1-c1ccc(F)cc1)Nc1ccc(Cl)cc1C(=O)O

IC50 [4]: 2.82 µM | half-life [5]: 1.6 h | Tmax [6]: 2 h | Cmax [7]: 17 µM
SMILES: O=C(Nc1ccc(Cl)cc1C(=O)O)c1cccc(-c2ccccc2)c1

Cmax [8]: 86.5 µM | Tmax [9]: 2 h
SMILES: O=C(COCC(=O)Nc1ccc(Cl)cc1C(=O)O)Nc1cccc(-c2ccsc2)c1

IC50 [4]: 21.6 µM | half-life [5]: 1.8 h | Tmax [6]: 1 h | Cmax [7]: 45.5 µM
SMILES: O=C(Nc1ccc(Cl)cc1C(=O)O)c1ccc(C2CCOCC2)cc1

half-life [5]: > 22 h | Tmax [6]: 2 h | Cmax [7]: 41.6 µM
SMILES: O=C(NCc1cccc(-c2ccoc2)c1)C(=O)Nc1ccc(Cl)cc1C(=O)O

IC50 [4]: 0.9 µM | half-life [5]: 1.7 h | Tmax [6]: 2 h | Cmax [7]: 6.3 µM
SMILES: O=C(Nc1ccc(Cl)cc1C(=O)O)c1cccc(-c2cccc3ccccc23)c1

IC50 [4]: > 20 µM | half-life [5]: 1.9 h | Tmax [6]: 2 h | Cmax [7]: 38.4 µM
SMILES: O=C(Nc1ccc(Cl)cc1C(=O)O)c1ccc(-c2cccs2)cc1

half-life [5]: 2.6 h | Tmax [6]: 1 h | Cmax [7]: 5.4 µM
SMILES: O=C(CSCC(=O)Nc1ccc(Cl)cc1C(=O)O)Nc1cccc(-c2ccoc2)c1

IC50 [4]: 3.19 µM | half-life [5]: 9.2 h | Tmax [6]: 6 h | Cmax [7]: 1 µM
SMILES: O=C(Nc1ccc(Cl)cc1C(=O)[O-])c1cccc(-c2cncc3ccccc23)c1.[Na+]

half-life [5]: 1.7 h | Tmax [6]: 2 h | Cmax [7]: 22.5 µM
SMILES: O=C(Nc1cccc(-c2ccoc2)c1)C(=O)Nc1ccc(Cl)cc1C(=O)O
